Measurements from DBAASP.
Values after ≈ are worked out from the molar mass of the structure shown.

Columns and labels:
Test in all cases: ≥ marks a high value that may be exact or a test limit, other limits are often not marked, values filed in µg/mL are converted to µM
[1] = system: Mycobacterium tuberculosis CSU87
[2] = system: Mycobacterium tuberculosis H37Rv
[3] = system: Escherichia coli CIP 76.24
[4] = system: Staphylococcus aureus CIP 53.156
[5] = system: Candida albicans ATCC 36232
[6] = system: Escherichia coli ATCC 2592
[7] = system: Micrococcus luteus ATCC 9341
[8] = system: Pseudomonas aeruginosa ATCC 9027
[9] = system: Staphylococcus aureus 1550
[10] = system: Staphylococcus aureus ATCC 6538
[11] = system: Streptococcus mutans UA159
[12] = system: Streptococcus sanguinis ATCC 10556
[13] = system: Streptococcus sobrinus ATCC 6715
[14] = system: Bacillus subtilis BGSC 1A1
[15] = system: Escherichia coli ATCC 25922
Klebsiella pneumoniae = system: Klebsiella pneumoniae
[16] = system: Mycobacterium tuberculosis mc2-6020
[17] = system: Mycobacterium tuberculosis mc2-6230
[18] = system: Pseudomonas aeruginosa ATCC 27853
[19] = system: Staphylococcus aureus ATCC 25923
Streptococcus agalactiae = system: Streptococcus agalactiae
Streptococcus mutans = system: Streptococcus mutans
[20] = system: Streptococcus pneumoniae ATCC 49619
Streptococcus pyogenes = system: Streptococcus pyogenes
Aerococcus viridans = system: Aerococcus viridans
Alternaria brassicicola = system: Alternaria brassicicola
Ascochyta pisi = system: Ascochyta pisi
Bacillus megaterium = system: Bacillus megaterium
Botrytis cinerea = system: Botrytis cinerea
Fusarium culmorum = system: Fusarium culmorum
Fusarium haematococcum = system: Fusarium haematococcum
Micrococcus luteus = system: Micrococcus luteus
Neurospora crassa = system: Neurospora crassa
Pediococcus acidilactici = system: Pediococcus acidilactici
Trichoderma viride = system: Trichoderma viride
[21] = system: Candida albicans ATCC 64550
[22] = system: Candida albicans ATCC 90028
[23] = system: Staphylococcus aureus ATCC 29737
[24] = system: Staphylococcus aureus USA 100
[25] = system: Staphylococcus aureus USA 300
[26] = system: Staphylococcus epidermidis ATCC 12228
Bacillus subtilis = system: Bacillus subtilis
Escherichia coli HB101 = system: Escherichia coli HB101
Pseudomonas aeruginosa = system: Pseudomonas aeruginosa
Salmonella typhimurium = system: Salmonella typhimurium
Staphylococcus aureus = system: Staphylococcus aureus

CSCC[C@H](NC(=O)[C@H](CCCCN)NC(=O)[C@H](CCCCN)NC(=O)[C@H](CC(C)C)NC(=O)[C@H](CC(C)C)NC(=O)[C@H](CCCCN)NC(=O)[C@H](CCCCN)NC(=O)[C@H](CC(C)C)NC(=O)[C@@H](N)CC(C)C)C(N)=O [LLKKLLKKM]
MIC [1]: ≥ 112 µM | MIC [2]: ≥ 449 µM

CC[C@H](C)[C@H](N)C(=O)N1CCC[C@H]1C(=O)N[C@@H](Cc1c[nH]c2ccccc12)C(=O)NCC(=O)N[C@@H](CCCCN)C(=O)N[C@H](C(=O)N[C@@H](CCCCN)C(=O)N[C@@H](CC(=O)O)C(=O)N[C@@H](Cc1ccccc1)C(=O)N[C@@H](CC(C)C)C(=O)N[C@H](C(=O)NCC(=O)NCC(=O)N[C@@H](CCSC)C(=O)N[C@@H](CCCCN)C(=O)N[C@@H](C)C(=O)N[C@H](C(N)=O)C(C)C)C(C)C)C(C)C [IPWGKVKDFLVGGMKAV]
MIC [3]: ≥ 49 µM | MIC [4]: 9 µM (≈ 16.6 µg/mL)

CC(C)[C@H](NC(=O)[C@H](CCCCN)NC(=O)[C@H](Cc1ccccc1)NC(=O)[C@@H](NC(=O)[C@@H](NC(=O)[C@H](CCCCN)NC(=O)[C@@H](N)Cc1cnc[nH]1)C(C)C)C(C)C)C(=O)N[C@@H](CCCCN)C(=O)N[C@@H](Cc1ccccc1)C(=O)N[C@@H](Cc1cnc[nH]1)C(=O)O [HKVVFKVKFH]
MIC [5]: ≥ 78.8 µM | MIC [6]: 15 µM (≈ 19 µg/mL) | MIC [7]: 7.88 µM (≈ 10 µg/mL) | MIC [8]: 8.67 µM (≈ 11 µg/mL) | MIC [9]: ≥ 49.7 µM | MIC [10]: 12.6 µM (≈ 16 µg/mL)

NCCCC[C@H](NC(=O)[C@H](Cc1c[nH]c2ccccc12)NC(=O)[C@H](CCCCN)NC(=O)[C@H](CCCCN)NC(=O)[C@H](Cc1ccccc1)NC(=O)[C@H](Cc1ccccc1)NC(=O)[C@H](CCCCN)NC(=O)[C@H](CCCCN)NC(=O)[C@H](Cc1ccccc1)NC(=O)[C@H](Cc1ccccc1)NC(=O)[C@H](CCCCN)NC(=O)[C@@H](N)Cc1ccccc1)C(=O)O [FKFFKKFFKKWK]
MIC [11]: 9.36 µM (≈ 16 µg/mL) | MIC [12]: 18.7 µM (≈ 32 µg/mL) | MIC [13]: 18.7 µM (≈ 32 µg/mL)

CC[C@H](C)[C@H](N)C(=O)N[C@@H](CC(C)C)C(=O)N[C@@H](CO)C(=O)N[C@@H](CC(C)C)C(=O)N[C@@H](CCCN=C(N)N)C(=O)N[C@@H](Cc1c[nH]c2ccccc12)C(=O)N[C@@H](CCCN=C(N)N)C(=O)N[C@@H](Cc1c[nH]c2ccccc12)C(=O)N[C@@H](Cc1c[nH]c2ccccc12)C(=O)N[C@@H](CCCCN)C(=O)N[C@@H](Cc1c[nH]c2ccccc12)C(=O)N[C@@H](CCCCN)C(=O)N[C@@H](CCCCN)C(=O)O [ILSLRWRWWKWKK]
MIC [14]: 2 µM (≈ 3.77 µg/mL) | MIC [15]: 8 µM (≈ 15.1 µg/mL) | MIC (Klebsiella pneumoniae): 32 µM (≈ 60.4 µg/mL) | MIC [16]: 4 µM (≈ 7.55 µg/mL) | MIC [17]: ≥ 32 µM | MIC [18]: 32 µM (≈ 60.4 µg/mL) | MIC [19]: 68 µM (≈ 128 µg/mL) | MIC (Streptococcus agalactiae): 4 µM (≈ 7.55 µg/mL) | MIC (Streptococcus mutans): 4 µM (≈ 7.55 µg/mL) | MIC [20]: ≥ 32 µM | MIC (Streptococcus pyogenes): 4 µM (≈ 7.55 µg/mL)

CC[C@H](C)[C@H](NC(=O)[C@@H](NC(=O)[C@@H]1CCCN1C(=O)[C@@H](NC(=O)[C@@H]1CCCN1C(=O)[C@H](CCCCN)NC(=O)[C@H](CCCCN)NC(=O)[C@H](CO)NC(=O)CN)C(C)C)[C@@H](C)CC)C(=O)N[C@@H](Cc1ccc(O)cc1)C(=O)N[C@H]1CSSC[C@@H](C(=O)O)NC(=O)[C@H](CCCCN)NC(=O)CNC(=O)[C@H]([C@@H](C)O)NC(=O)[C@H](CCCN=C(N)N)NC(=O)[C@H](CCCN=C(N)N)NC(=O)[C@H](CC(N)=O)NC1=O [GSKKPVPIIYCNRRTGKC]
MIC (Aerococcus viridans): 3.54 µM (≈ 7.14 µg/mL) | MIC (Alternaria brassicicola): 7.07 µM (≈ 14.3 µg/mL) | MIC (Ascochyta pisi): 28.3 µM (≈ 57.1 µg/mL) | MIC (Bacillus megaterium): 7.07 µM (≈ 14.3 µg/mL) | MIC (Botrytis cinerea): 7.07 µM (≈ 14.3 µg/mL) | MIC (Fusarium culmorum): 14.1 µM (≈ 28.5 µg/mL) | MIC (Fusarium haematococcum): 7.07 µM (≈ 14.3 µg/mL) | MIC (Micrococcus luteus): 7.07 µM (≈ 14.3 µg/mL) | MIC (Neurospora crassa): 14.1 µM (≈ 28.5 µg/mL) | MIC (Pediococcus acidilactici): 28.3 µM (≈ 57.1 µg/mL) | MIC (Trichoderma viride): 28.3 µM (≈ 57.1 µg/mL)

CC[C@H](C)[C@H](N)C(=O)N[C@@H](CCCN=C(N)N)C(=O)N[C@H](C(=O)N[C@@H](CCCN=C(N)N)C(=O)N[C@H](C(=O)N[C@@H](CCCN=C(N)N)C(=O)N[C@H](C(=O)N[C@@H](CCCN=C(N)N)C(N)=O)[C@@H](C)CC)[C@@H](C)CC)[C@@H](C)CC [IRIRIRIR]
MIC [21]: 12.5 µM (≈ 13.7 µg/mL) | MIC [22]: 6.25 µM (≈ 6.84 µg/mL) | MIC [15]: 7.12 µM (≈ 7.79 µg/mL) | MIC [8]: 6.25 µM (≈ 6.84 µg/mL) | MIC [23]: 28.6 µM (≈ 31.3 µg/mL) | MIC [24]: 6.25 µM (≈ 6.84 µg/mL) | MIC [25]: 6.25 µM (≈ 6.84 µg/mL) | MIC [26]: 3.56 µM (≈ 3.9 µg/mL)

CC[C@H](C)[C@H](NC(=O)[C@@H](NC(=O)[C@@H]1CCCN1C(=O)[C@@H](NC(=O)[C@@H]1CCCN1C(=O)[C@H](CCCCN)NC(=O)[C@H](CCCCN)NC(=O)[C@H](CO)NC(=O)CN)C(C)C)[C@@H](C)CC)C(=O)N[C@@H](Cc1ccc(O)cc1)C(=O)N[C@H]1CSSC[C@@H](C(=O)N[C@@H](CCC(N)=O)C(=O)N[C@@H](CCCN=C(N)N)C(=O)N[C@@H](CCSC)C(=O)O)NC(=O)[C@H](CCCCN)NC(=O)CNC(=O)[C@H](CCCN=C(N)N)NC(=O)[C@H](CCCN=C(N)N)NC(=O)[C@H](CC(N)=O)NC1=O [GSKKPVPIIYCNRRGKCQRM]
MIC (Bacillus subtilis): 5.2 µM (≈ 12.1 µg/mL) | MIC (Escherichia coli HB101): 0.64 µM (≈ 1.49 µg/mL) | MIC (Pseudomonas aeruginosa): 2.6 µM (≈ 6.07 µg/mL) | MIC (Salmonella typhimurium): 1.3 µM (≈ 3.03 µg/mL) | MIC (Staphylococcus aureus): 10.4 µM (≈ 24.3 µg/mL)
